{"source": "paper PMC7819857", "about": "“Identification of Inhibitors of Integrin Cytoplasmic Domain Interactions With Syk” (Frontiers in Immunology, 2021)", "key": {"[1]": {"biological_target": "T1, integrin β3 cytoplasmic domain : tandem SH2 domains of Syk (GST-Syk(6-370)) (Homo sapiens, UniProt P43405)", "T1 construct": "the tandem SH2 domains of Syk (residues 6-370); made in house; host or cells: E. coli BL21(DE3)", "assay": "AlphaScreen of integrin β3 cytoplasmic domain peptide binding to GST-Syk(6-370)", "experimental": "(§1) The following HTS assay was developed to identify antagonists of the interaction between the integrin β3 cytoplasmic domain and the non-receptor tyrosine kinase Syk. […] ( Figure 1E ). Background signals in this assay were determined by omitting the integrin β3 peptide. Specific assay conditions are described in Table 1 . […] Then, either dimethyl sulfoxide control or compound was added, followed by biotinylated β3 peptide, and avidin-coated AlphaScreen donor beads. After a 4-h incubation period at room temperature (while protected from light), assays plates were read on an Infinite M1000 (Tecan) multiplate reader (Ex. 680/30; Em. 570/100).\nFigure 3 Dose-response curves in primary and orthogonal screens. (A) AlphaScreen dose-response curves. […] Data are expressed as mean fluorescence (Fl520) ± range from duplicates, and one representative experiment of “n” performed is shown. (B) Orthogonal ELISA-based dose-response assays. […] Data are expressed as mean abs450 ± SEM from triplicate determinations, and one of three representative experiments is shown. (C) Ceftazidime inhibition of β3 peptide binding to Syk from THP-1 whole cell lysate. THP-1 cell lysate (100 ug) was treated with or without ceftazidime (Ctaz) before incubation with β3-coated avidin-agarose beads, and bound Syk was measured by western blot (example shown in inset). Blank beads served as a negative control. Equal β3 peptide loading was verified by probing blots with avidin-HRP (not shown)."}, "[2]": {"biological_target": "T2, integrin β1A cytoplasmic domain : GST-Syk(6-370) (Homo sapiens, UniProt P43405)", "T2 construct": "made in house; host or cells: E. coli BL21(DE3)", "assay": "AlphaScreen of integrin β1A cytoplasmic domain binding to Syk", "conditions": "read-out: antagonist activity against β1 (value without measure name), AlphaScreen", "experimental": "as §1\n(§2) Figure 4 Ceftazidime inhibition of integrin signaling. (A) Dose-response curves comparing ceftazidime antagonist activity against integrin β1A, β2, and β3 cytoplasmic domains binding to Syk as measured in AlphaScreen assays. […] Data are expressed as mean fluorescence (Fl520) ± the range from duplicate determinations. One of three experiments is shown. (B) Flow cytometric analysis of integrin α4β1, β2 subunit, αVβ3, and FcγRI (CD64) on THP-1 cells. Isotype control staining is shown as light gray histograms. Specific integrin staining is shown as darker gray histograms. […] One representative blot is shown (top), along with quantification of three separate experiments normalized to maximum Syk phosphorylation (bottom). Results are expressed as the mean ± SEM."}, "[3]": {"biological_target": "T3, integrin β2 cytoplasmic domain : GST-Syk(6-370) (Homo sapiens, UniProt P43405)", "T3 construct": "made in house; host or cells: E. coli BL21(DE3)", "assay": "AlphaScreen of integrin β2 cytoplasmic domain binding to Syk", "conditions": "read-out: antagonist activity against β2 (value without measure name), AlphaScreen", "experimental": "as §1, §2"}, "[4]": {"biological_target": "T4, pITAM : Syk tandem SH2 domains (GST-Syk(6-370)) (Homo sapiens, UniProt P43405)", "T4 construct": "made in house; host or cells: E. coli BL21(DE3)", "assay": "pITAM-Syk AlphaScreen", "conditions": "read-out: IC50, inhibition of pITAM-Syk binding", "description": "(§3) Figure 6 Selective inhibition of integrin signaling by ceftazidime. (A) Schematic illustration of the pITAM-Syk AlphaScreen used to test antagonist selectivity. (B) Comparison between ceftazidime (Ctaz) and pITAM peptide inhibition of pITAM-Syk binding in the AlphaScreen assay described in (A). […] Data are expressed as mean ± range from duplicate determinations. One of four representative assays is shown. (C) Effect of ceftazidime on Syk kinase activity. Ceftazidime (Ctaz) or Syk inhibitor P505-15 was used at 100 uM. Kinase activity is expressed as percent of maximum signal. Data are expressed as mean ± SEM (n = 3). **p < 0.01 (D) Selective effects of ceftazidime on integrin signaling. […] Phosphorylation of Syk (left and right panel) and Pyk-2 (center panel) was analyzed by immunoprecipitation and western blot. […] Quantification is shown below (left panel, n = 5; center panel, n = 3; right panel, n = 3), normalized to phosphorylation in suspension. Results are expressed as the mean ± SEM. […] Expression of interleukin (IL)-1β and monocyte chemoattractant protein (MCP)-1 genes was examined by quantitative real-time polymerase chain reaction. Data are expressed as expression levels relative to control cells kept in suspension. […] P-values were calculated by the Student t test. […]"}, "[5]": {"biological_target": "T5, full-length Syk (Homo sapiens, UniProt P43405)", "T5 construct": "ceftazidime had no effect on the catalytic function of full-length Syk", "assay": "Syk kinase activity assay", "assay_type": "biochemical", "conditions": "100 uM, 100-fold higher than the AlphaScreen IC50", "description": "as §3"}, "[6]": {"system": "THP-1 cells", "assay": "THP-1 cell adhesion to CS-1", "assay_type": "cell-based, human", "conditions": "cells loaded by glycerol shock", "experimental": "Supplemental Figure 6. Effects of ceftazidime on THP-1 adhesion to CS-1. Cells were loaded with ceftazidime by glycerol shock. After loading, cells were washed with media and loaded with calcein-AM. CS-1–conjugated bovine serum albumin was immobilized in 96-well plates (5 ug/ml), and adhesion assays were performed as previously described (1). Data are expressed as average fluorescence ± standard deviation from triplicates. One of two representative experiments is shown. The green line represents cell adhesion in the absence of ceftazidime."}}, "note": "Like-named read-outs stand apart in the source and are kept apart here."}
{"compound": "CC(C)(O/N=C(\\C(=O)N[C@@H]1C(=O)N2C(C(=O)[O-])=C(C[n+]3ccccc3)CS[C@H]12)c1csc(N)n1)C(=O)O", "note": "[ceftazidime]", "values": [{"measurement": "IC50", "setting": "[1]; Figure 3A: biotinylated-b3(sh) peptide 30 nM, GST-Syk(6-370) 0.3 nM, read-out: IC50, AlphaScreen dose-response", "value": "1020 ± 200", "unit": "nM"}, {"measurement": "IC50", "setting": "[1]; abstract summary for both compounds, read-out: IC50 range, inhibition of integrin β-subunit cytoplasmic domain binding to the tandem SH2 domains of Syk", "value": "1020 to 4900", "unit": "nM"}, {"measurement": "IC50", "setting": "[1]; as restated in the Discussion, read-out: IC50 in AlphaScreen assays", "value": 1000, "unit": "nM"}, {"measurement": "IC50", "setting": "[1]; biotinylated β chain peptide 30 nM, GST-Syk(6-370) 0.3 nM, Figure 4A, read-out: antagonist activity against β3 (value without measure name), AlphaScreen", "value": "1870 ± 200", "unit": "nM"}, {"measurement": "fold difference in inhibition, primary screen over false-positive counter screen (hit criterion)", "setting": "[1]; re-sourced compounds, counter screen with biotinylated GST", "value": "greater than 3 fold"}, {"measurement": "inhibition of fluorescent signal in the primary screen, re-sourced compounds (hit criterion)", "setting": "[1]; re-sourced from a separate commercial source, 25 uM in text, 30 uM in legend of Figure 2C", "value": "greater than 50%"}, {"measurement": "IC50", "setting": "[2]", "value": "1620 ± 410", "unit": "nM"}, {"measurement": "IC50", "setting": "[3]", "value": "1530 ± 210", "unit": "nM"}, {"measurement": "IC50", "setting": "[4]", "value": "> 300000", "unit": "nM"}, {"measurement": "effect on the catalytic function of full-length Syk", "setting": "[5]", "value": "no effect"}, {"measurement": "effect on THP-1 cell adhesion to CS-1", "setting": "[6]", "value": "not due to ceftazidime inhibition of THP-1 cell adhesion to CS-1"}]}
